Experimental data published in patent US9169241B2, “Quinolinyloxyphenylsulfonamides” (Max-Planck-Gesellschaft Zur Forderung der Wissenschaften …, priority 2009, dated 2015).
pIC50: −log10 of the molar value. Like-named read-outs stand apart in the source and are kept apart here.

Experiments:
Format in all cases: cell-based
[1] = tested on: SF126; assay: Matrigel outgrowth assay/branching assay; conditions: Homo sapiens, SF-126, Table Vb, read-out: Total branching inhibition in Matrigel SF126
How it was run: (§1)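 Step one: Matrigel (3 mg/ml) is set for 1 h at 37° C. Step two: 5000 cells per well go on in medium with compound (0.78–3.125 μM) or DMSO. Step three: images at 48, 72 and 96 h are scored for complete loss of branching.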

[2] = tested on: A172; assay: Matrigel outgrowth assay/branching assay; conditions: Homo sapiens, A 172, Table Vb, read-out: Total branching inhibition in Matrigel A172
How it was run: as §1

[3] = tested on: U118; assay: Matrigel outgrowth assay/branching assay; conditions: Table Vb, read-out: Total branching inhibition in Matrigel U118
How it was run: as §1

[4] = tested on: cells; assay: Boyden chamber migration assay (Table VI); conditions: Hs578T cells, 16 h migration
How it was run: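 20000 cells seeded in the upper compartment in 0% FCS plus 0.1% BSA and left 16 h to migrate through […] membrane toward 10% FCS medium below. Non-migrated cells swabbed off; cells on the filter underside fixed and counted.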

[5] = tested on: Hs578T; assay: Wound healing migration assay; conditions: Homo sapiens, Hs-578T; HS578T cell line; Table Ib
How it was run: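 Cells seeded at 150000/24 well, grown to monolayer overnight, scratched with a pipette tip, then treated with compound at 12.5, 6.25 or 3.125 μM versus DMSO. Stopped by crystal violet fixation at 48-72 h once control wounds closed; IC50 taken as 50% wound size between t0 and t48 or t72.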

[6] = tested on: C8161; assay: Apoptosis assay (Cellomics, nucleus condensation); conditions: Homo sapiens, Table III, read-out: Apoptosis induction in C8161
How it was run: (§2)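 Cells at 5000 per well were stained live with Hoechst 33342 and imaged on an automated fluorescence microscope after 24 h and 48 h compound exposure (12.5 μM down to 0.39 μM, twofold steps; DMSO control). Per-nucleus intensity variation quantified nuclear condensation; cell counts were also recorded.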

[7] = tested on: SF126; assay: Apoptosis assay (Cellomics, nucleus condensation); conditions: Homo sapiens, SF-126, Table III, read-out: Apoptosis induction in SF126
How it was run: as §2

[8] = tested on: U138; assay: Apoptosis assay (Cellomics, nucleus condensation); conditions: Table III, read-out: Apoptosis induction in U138
How it was run: as §2

[9] = tested on: Hs578T; assay: Apoptosis assay (Cellomics, nucleus condensation); conditions: Homo sapiens, Hs-578T, Table III, read-out: Apoptosis induction in Hs578T
How it was run: as §2

[10] = tested on: SF763; assay: Apoptosis assay (Cellomics, nucleus condensation); conditions: Table III, read-out: Apoptosis induction in SF763
How it was run: as §2

[11] = tested on: tumor cell; assay: Matrigel outgrowth assay/branching assay (Table Va)
How it was run: as §1

[12] = tested on: viable cells in culture; assay: Cell viability assay at 10 μM (CellTiter-Glo, Table VII); conditions: compound 10 μM, 72 h;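 also: graded A 0-20%; B 21-40%; C 41-60%; D over 60% viable cells relative to DMSO control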
How it was run: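 Viable cell number was measured with the CellTiter-Glo Luminescent Cell Viability Assay (Promega), following the manufacturer's protocol, which quantifies ATP as a marker of metabolically active cells. In 96-well plates, 1000 cells/well in 100 μl medium were exposed to compound at 10 μM, or to DMSO control, for 72 h. Values were calculated relative to DMSO-control ATP.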

[13] = Homo sapiens, C8161 cells, read-out: Total branching inhibition in Matrigel C8161
[14] = Homo sapiens, Hs-578T, Hs578T cells, read-out: Total branching inhibition in Matrigel Hs578T
[15] = U118 cells, read-out: Total branching inhibition in Matrigel U118
[16] = U138 cells, read-out: Total branching inhibition in Matrigel U138
[17] = Homo sapiens, HCT-116, HCT116 def, read-out: percentage (%) of viable cells HCT 116def
[18] = Homo sapiens, HCT-116, HCT116 wt, read-out: percentage (%) of viable cells HCT 116wt
[19] = Homo sapiens, HT-29, HT29, read-out: percentage (%) of viable cells HT29
[20] = Homo sapiens, NCI-H358, H358, read-out: percentage (%) of viable cells H358
[21] = Homo sapiens, NCI-H1650, H1650, read-out: percentage (%) of viable cells H1650
[22] = Homo sapiens, NCI-H1666, H1666, read-out: percentage (%) of viable cells H1666
[23] = Homo sapiens, NCI-H1975, H1975, read-out: percentage (%) of viable cells H1975
[24] = Homo sapiens, NCI-H1993, H1993, read-out: percentage (%) of viable cells H1993
[25] = Homo sapiens, A549, read-out: percentage (%) of viable cells A549
[26] = Homo sapiens, HCC827, read-out: percentage (%) of viable cells HCC827
[27] = Homo sapiens, SW480, read-out: percentage (%) of viable cells SW480
[28] = RKO, read-out: percentage (%) of viable cells RKO

| SMILES | pIC50 ([4]; Homo sapiens, Hs-578T, 16 h) | pIC50 [5] | pIC50 [6] | pIC50 [7] | pIC50 [8] | pIC50 [9] | pIC50 [10] | pIC50 [11, 13] | pIC50 [11, 14] | pIC50 [11, 15] | pIC50 [11, 16] | IC100 [1] [µM] | IC100 [2] [µM] | IC100 [3] [µM] | viability at 10 µM [12, 17] [%] | viability at 10 µM [12, 18] [%] | viability at 10 µM [12, 19] [%] | viability at 10 µM [12, 20] [%] | viability at 10 µM [12, 21] [%] | viability at 10 µM [12, 22] [%] | also measured |
| --- | --- | --- | --- | --- | --- | --- | --- | --- | --- | --- | --- | --- | --- | --- | --- | --- | --- | --- | --- | --- | --- |
| COc1cc2c(Oc3ccc(NS(=O)(=O)c4c(F)cccc4F)cc3F)ccnc2cc1OCCCN1CCOCC1 [Example 77, 2,6-Difluoro-N-{3-fluoro-4-[6-methoxy-7-(3-morpholin-4-yl-propoxy)-quinolin-4-yloxy]-phenyl}-benzenesulfonamide] | ≥ 5.30 | ≥ 4.90 | ≥ 4.90 | ≥ 4.90 | ≥ 4.90 | ≥ 4.90 | ≥ 4.90 | 4.30 to 5.30 | ≥ 5.30 | ≥ 5.30 | 4.30 to 5.30 | ≤ 12.5 | > 12.5 | ≤ 12.5 | 21 to 40 | 0 to 20 | 41 to 60 | 0 to 20 | 21 to 40 | 41 to 60 | viability at 10 µM [12, 23]: 0 to 20%; viability at 10 µM [12, 24]: 21 to 40%; viability at 10 µM [12, 25]: 41 to 60%; viability at 10 µM [12, 26]: > 60%; viability at 10 µM [12, 27]: 0 to 20%; viability at 10 µM [12, 28]: 21 to 40% |
| COc1cc2c(Oc3ccc(NS(=O)(=O)c4cccc(Oc5ccccc5)c4)cc3F)ccnc2cc1OCCCN1CCCCC1 [Example 10, N-{3-Fluoro-4-[6-methoxy-7-(3-piperidin-1-yl-propoxy)-quinolin-4-yloxy]-phenyl}-3-phenoxy-benzenesulfonamide] | ≥ 5.30 | ≥ 4.90 | ≥ 4.90 | 4.30 to 4.90 | ≥ 4.90 | ≥ 4.90 | 4.30 to 4.90 | ≥ 5.30 | ≥ 5.30 | ≥ 5.30 | 4.30 to 5.30 | ≤ 12.5 | ≤ 12.5 | ≤ 12.5 | 0 to 20 | 0 to 20 | 21 to 40 | 0 to 20 | 21 to 40 | 21 to 40 | viability at 10 µM [12, 23]: 21 to 40%; viability at 10 µM [12, 24]: 0 to 20%; viability at 10 µM [12, 25]: 21 to 40%; viability at 10 µM [12, 26]: 0 to 20%; viability at 10 µM [12, 27]: 0 to 20%; viability at 10 µM [12, 28]: 0 to 20% |
| COc1cc2c(Oc3ccc(NS(=O)(=O)c4cccc(-c5ccccc5)c4)cc3F)ccnc2cc1OCCCN1CCCCC1 [Example 8, Biphenyl-3-sulfonic acid {3-fluoro-4-[6-methoxy-7-(3-piperidin-1-yl-propoxy)-quinolin-4-loxy]-phenyl}-amide] | ≥ 5.30 | ≥ 4.90 | ≥ 4.90 | ≥ 4.90 | 4.30 to 4.90 | ≥ 4.90 | ≥ 4.90 | ≥ 5.30 | ≥ 5.30 | ≥ 5.30 | ≥ 5.30 | ≤ 12.5 | ≤ 12.5 | ≤ 12.5 | 0 to 20 | 0 to 20 | 21 to 40 | 0 to 20 | 0 to 20 | 21 to 40 | viability at 10 µM [12, 23]: 0 to 20%; viability at 10 µM [12, 24]: 0 to 20%; viability at 10 µM [12, 25]: 41 to 60%; viability at 10 µM [12, 26]: 0 to 20%; viability at 10 µM [12, 27]: 0 to 20%; viability at 10 µM [12, 28]: 21 to 40% |
| COc1cc2c(Oc3ccc(NS(=O)(=O)c4ccccc4C(F)(F)F)cc3Cl)ccnc2cc1OCCCN1CCN(C)CC1 [Example 87, N-(3-Chloro-4-{6-methoxy-7-[3-(4-methyl-piperazin-1-yl)-propoxy]-quinolin-4-yloxy}-phenyl)-2-trifluoromethyl-benzenesulfonamide] | 4.30 to 5.30 | ≥ 4.90 | ≥ 4.90 | ≥ 4.90 | 4.30 to 4.90 | ≥ 4.90 | ≥ 4.90 | ≥ 5.30 | ≥ 5.30 | ≥ 5.30 | 4.30 to 5.30 | ≤ 12.5 | ≤ 12.5 | ≤ 12.5 | 0 to 20 | 41 to 60 | 0 to 20 | 0 to 20 | 21 to 40 | 41 to 60 | pIC50 [4]: ≥ 5.30; viability at 10 µM [12, 23]: 0 to 20%; viability at 10 µM [12, 24]: 41 to 60%; viability at 10 µM [12, 25]: > 60%; viability at 10 µM [12, 26]: 41 to 60%; viability at 10 µM [12, 27]: 0 to 20%; viability at 10 µM [12, 28]: 41 to 60% |

More lines, main results first:

| pIC50 ([4]; Homo sapiens, Hs-578T, 16 h) | pIC50 [5] | pIC50 [6] | pIC50 [7] | pIC50 [8] | pIC50 [9] | pIC50 [10] | pIC50 [11, 13] | pIC50 [11, 14] | pIC50 [11, 15] | pIC50 [11, 16] | SMILES | IC100 [1] [µM] | IC100 [2] [µM] | IC100 [3] [µM] | viability at 10 µM [12, 17] [%] | viability at 10 µM [12, 18] [%] | viability at 10 µM [12, 19] [%] | viability at 10 µM [12, 20] [%] | viability at 10 µM [12, 21] [%] | viability at 10 µM [12, 22] [%] | also measured |
| --- | --- | --- | --- | --- | --- | --- | --- | --- | --- | --- | --- | --- | --- | --- | --- | --- | --- | --- | --- | --- | --- |
| ≥ 5.30 | ≥ 4.90 | 4.30 to 4.90 | 4.30 to 4.90 | ≥ 4.90 | ≥ 4.90 | ≥ 4.90 | ≥ 5.30 | ≥ 5.30 | ≥ 5.30 | 4.30 to 5.30 | COc1cc2c(Oc3ccc(NS(=O)(=O)c4ccc(F)cc4F)cc3F)ccnc2cc1OCCCN1CCCC(C)C1 (stereo not shown) [Example 47, 2,4-Difluoro-N-(3-fluoro-4-{6-methoxy-7-[3-(3-methyl-piperidin-1-yl)-propoxy]-quinolin-4-yloxy}-phenyl)-benzenesulfonamide] | ≤ 12.5 | > 12.5 | ≤ 12.5 | 21 to 40 | 0 to 20 | 41 to 60 | 0 to 20 | 41 to 60 | 21 to 40 | viability at 10 µM [12, 23]: 0 to 20%; viability at 10 µM [12, 24]: 0 to 20%; viability at 10 µM [12, 25]: 41 to 60%; viability at 10 µM [12, 26]: 41 to 60%; viability at 10 µM [12, 27]: 21 to 40%; viability at 10 µM [12, 28]: 0 to 20% |
| 4.30 to 5.30 | ≥ 4.90 | ≥ 4.90 | ≥ 4.90 | ≥ 4.90 | ≥ 4.90 | ≥ 4.90 | ≥ 5.30 | ≥ 5.30 | ≥ 5.30 | 4.30 to 5.30 | COc1cc2c(Oc3ccc(NS(=O)(=O)c4ccccc4Cl)cc3F)ccnc2cc1OCCCN1CCCC(C)C1 (stereo not shown) [Example 38, 2-Chloro-N-(3-fluoro-4-{6-methoxy-7-[3-(3-methyl-piperidin-1-yl)-propoxy]-quinolin-4-yloxy}-phenyl)-benzenesulfonamide] | ≤ 12.5 | ≤ 12.5 | > 12.5 | 21 to 40 | 21 to 40 | 0 to 20 | 0 to 20 | > 60 | 21 to 40 | viability at 10 µM [12, 23]: 21 to 40%; viability at 10 µM [12, 24]: 21 to 40%; viability at 10 µM [12, 25]: > 60%; viability at 10 µM [12, 26]: 41 to 60%; viability at 10 µM [12, 27]: 0 to 20%; viability at 10 µM [12, 28]: 0 to 20% |
